Source: patent US8778966B2, “Quinolinone derivatives as PARP and tank inhibitors” (Janssen Pharmaceutica, NV, priority 2007, dated 2014)

target: T1, TANK-2 enzyme (Homo sapiens, UniProt Q9H2K2); assay: In vitro Scintillation Proximity Assay (SPA) for TANK-2 inhibitory activity; type: biochemical; conditions: read-out: in vitro SPA assay TANK-2 pIC50 (converted)
T1 construct: made in house
T1 sequence (Q9H2K2 1-1166): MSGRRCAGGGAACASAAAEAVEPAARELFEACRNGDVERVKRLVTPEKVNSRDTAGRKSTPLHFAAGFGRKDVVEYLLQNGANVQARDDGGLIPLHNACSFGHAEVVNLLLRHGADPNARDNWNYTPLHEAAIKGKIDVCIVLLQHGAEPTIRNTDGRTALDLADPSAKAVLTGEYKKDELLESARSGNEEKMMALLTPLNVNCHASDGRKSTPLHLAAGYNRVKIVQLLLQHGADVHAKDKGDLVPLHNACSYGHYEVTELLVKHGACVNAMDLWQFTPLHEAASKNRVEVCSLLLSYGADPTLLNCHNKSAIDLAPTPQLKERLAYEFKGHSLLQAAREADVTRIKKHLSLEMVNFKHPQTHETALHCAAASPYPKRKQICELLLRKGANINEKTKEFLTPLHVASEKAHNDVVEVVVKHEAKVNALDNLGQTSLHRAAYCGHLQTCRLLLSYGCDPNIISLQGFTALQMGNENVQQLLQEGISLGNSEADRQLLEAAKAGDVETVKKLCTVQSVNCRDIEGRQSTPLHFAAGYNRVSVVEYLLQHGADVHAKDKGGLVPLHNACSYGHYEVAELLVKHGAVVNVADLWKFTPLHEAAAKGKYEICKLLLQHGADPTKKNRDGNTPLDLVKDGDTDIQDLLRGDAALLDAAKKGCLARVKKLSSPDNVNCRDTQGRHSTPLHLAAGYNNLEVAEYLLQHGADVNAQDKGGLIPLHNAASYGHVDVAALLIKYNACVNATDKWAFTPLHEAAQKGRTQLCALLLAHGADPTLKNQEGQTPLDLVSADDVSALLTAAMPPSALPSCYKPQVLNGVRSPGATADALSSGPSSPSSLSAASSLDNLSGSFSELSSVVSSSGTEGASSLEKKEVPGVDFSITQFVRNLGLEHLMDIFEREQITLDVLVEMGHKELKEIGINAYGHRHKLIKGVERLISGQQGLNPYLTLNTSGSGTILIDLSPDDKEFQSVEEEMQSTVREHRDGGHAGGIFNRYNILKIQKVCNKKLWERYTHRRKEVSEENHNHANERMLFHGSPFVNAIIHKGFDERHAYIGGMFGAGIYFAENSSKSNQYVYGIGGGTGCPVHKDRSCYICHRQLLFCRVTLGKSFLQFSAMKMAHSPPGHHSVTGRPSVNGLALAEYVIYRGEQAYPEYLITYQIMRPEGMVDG
Outline: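 Results are pIC50 values, with IC50 interpolated linearly around 50% of blank-subtracted control cpm. They come from a scintillation proximity read of TANK-2 (8 μg/ml) self-modification with [3H]-NAD+/NAD, incubated 120 min at room temperature in pH 7.4 Tris buffer containing MgCl2 and DTT. Compounds were first screened at 10^−5 M.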

Q: Cc1cc2ccc(C(C)(C#N)C3CCc4c(C#N)cccc43)cc2[nH]c1=O (racemic) [Compound 393] was tested. Which IC50 did it give?
A: 794 nM

Q: For CCc1cc2ccc([C@@](C)(C#N)CN(C)Cc3ccc(C#N)cc3)cc2[nH]c1=O (single isomer, unassigned) [Compound 253], which IC50 is on record?
A: 200 nM

Q: With CCc1cc2ccc(C(C)(C#N)C3CCc4ccc(Br)cc43)cc2[nH]c1=O (single isomer, unassigned) [Compound 380] as the compound, how does the IC50 read?
A: 2510 nM

Q: With CCc1cc2ccc(C(C)(C#N)C3CCc4ccc(Br)cc43)cc2[nH]c1=O (single isomer, unassigned) [Compound 381] as the compound, how does the IC50 read?
A: 1260 nM

Q: Cc1cc2ccc([C@](C)(C#N)C3CCc4cccnc43)cc2[nH]c1=O (single isomer, unassigned) [Compound 388] was tested. Which IC50 did it give?
A: 631 nM

Q: CCc1cc2ccc([C@](C)(C#N)[C@H]3CCOc4ccccc43)cc2[nH]c1=O (single isomer, unassigned) [Compound 394] was tested. Which IC50 did it give?
A: 1000 nM

Q: For CCc1cc2ccc([C@@](C)(C#N)[C@H]3CCOc4ccccc43)cc2[nH]c1=O (single isomer, unassigned) [Compound 395], which IC50 is on record?
A: 501 nM

Q: CCc1cc2ccc([C@](C)(C#N)C[C@H]3CCc4ccccc4O3)cc2[nH]c1=O (single isomer, unassigned) [Compound 396] was tested. Which IC50 did it give?
A: 158 nM

Q: For CCc1cc2ccc(C(C)(C#N)Cc3cccc(-c4cnn(C)c4)c3)cc2[nH]c1=O (stereo not shown) [Compound 17], which IC50 is on record?
A: 50.1 nM

Q: How did the IC50 turn out when CCc1cc2ccc(C(C)(C#N)Cc3cccc(-c4ccccc4)c3)cc2[nH]c1=O (stereo not shown) [Compound 18] was run?
A: 251 nM

Q: With CCc1cc2ccc(C(C)(C#N)Cc3cccc(I)c3)cc2[nH]c1=O (stereo not shown) [Compound 19] as the compound, how does the IC50 read?
A: 158 nM

Q: With CCc1cc2ccc(C(C)(C#N)Cc3cccc(N(C)C)c3)cc2[nH]c1=O (stereo not shown) [Compound 20] as the compound, how does the IC50 read?
A: 63.1 nM

Q: How did the IC50 turn out when CCc1cc2ccc(C(C)(C#N)Cc3cccc(N4CCOCC4)c3)cc2[nH]c1=O (stereo not shown) [Compound 21] was run?
A: 63.1 nM

Q: CCc1cc2ccc(C(C)(C#N)Cc3cccc(O)c3)cc2[nH]c1=O (stereo not shown) [Compound 22] was tested. Which IC50 did it give?
A: 50.1 nM

Q: Which IC50 does the source give for CCc1cc2ccc(C(C)(C#N)Cc3cccc(OCc4ccccc4)c3)cc2[nH]c1=O (stereo not shown) [Compound 23] here?
A: 200 nM

Q: For CCc1cc2ccc(C(C)(C#N)Cc3cccc(OCCOC)c3)cc2[nH]c1=O (stereo not shown) [Compound 24], which IC50 is on record?
A: 79.4 nM

Q: How did the IC50 turn out when CCC(=O)c1cccc(CC(C)(C#N)c2ccc3cc(C)c(=O)[nH]c3c2)c1 (stereo not shown) [Compound 173] was run?
A: 1260 nM

Q: With CCc1cc2ccc(C(C)(C#N)Cc3cc(C)cc(C#N)c3)cc2[nH]c1=O (stereo not shown) [Compound 174] as the compound, how does the IC50 read?
A: 200 nM

Q: How did the IC50 turn out when CCc1cc2ccc(C(C)(C#N)Cc3cccc(S(F)(F)(F)(F)F)c3)cc2[nH]c1=O (stereo not shown) [Compound 177] was run?
A: 398 nM

Q: CCc1cc2ccc(C(C)(C#N)Cc3cccc(C4(N)CC4)c3)cc2[nH]c1=O (stereo not shown) [Compound 180] was tested. Which IC50 did it give?
A: 158 nM

Q: CCc1cc2ccc(C(C)(C#N)CCCN(C)C(=O)c3ccc(F)cc3)cc2[nH]c1=O (stereo not shown) [Compound 188] was tested. Which IC50 did it give?
A: 20 nM

Q: Which IC50 does the source give for CCc1cc2ccc([C@](C)(C#N)CN(C)Cc3ccc(C#N)cc3)cc2[nH]c1=O [Compound 190] here?
A: 251 nM

Q: Which IC50 does the source give for Cc1cc2ccc(C(C)(C#N)Cc3cccc(Oc4ncccn4)c3)cc2[nH]c1=O (stereo not shown) [Compound 191] here?
A: 1580 nM

Q: For Cc1cc2ccc(C(C)(C#N)Cc3cccc(Oc4ccccc4)n3)cc2[nH]c1=O (stereo not shown) [Compound 193], which IC50 is on record?
A: 631 nM

Q: For CCc1cc2cc(C)c(C(C)(C#N)Cc3cccc(C#N)n3)cc2[nH]c1=O (stereo not shown) [Compound 208], which IC50 is on record?
A: 39.8 nM

Q: For CCc1cc2ccc(C(C)(C#N)Cc3ccc(Cl)nc3Cl)cc2[nH]c1=O (stereo not shown) [Compound 212], which IC50 is on record?
A: 126 nM

Q: Which IC50 does the source give for COc1cc2ccc(C(C)(C#N)Cc3cccc(C#N)n3)cc2[nH]c1=O (stereo not shown) [Compound 218] here?
A: 1000 nM

Q: How did the IC50 turn out when CCc1cnc(OCCC(C)(C#N)c2ccc3cc(CC)c(=O)[nH]c3c2)nc1 (stereo not shown) [Compound 222] was run?
A: 100 nM

Q: How did the IC50 turn out when CCc1cc2ccc(C(C)(C#N)CCOc3nccc(OC)n3)cc2[nH]c1=O (stereo not shown) [Compound 223] was run?
A: 794 nM

Q: CCc1cc2ccc(C(C)(C#N)Cc3ccc(OC)nc3Cl)cc2[nH]c1=O (stereo not shown) [Compound 224] was tested. Which IC50 did it give?
A: 200 nM

Q: CCc1cc2ccc(C(C)(C#N)Cc3ccc(Cl)nc3OC)cc2[nH]c1=O (stereo not shown) [Compound 225] was tested. Which IC50 did it give?
A: 126 nM

Q: How did the IC50 turn out when CCc1cc2ccc(C(C)(C#N)Cc3cccc(N4CCCC4)n3)cc2[nH]c1=O (stereo not shown) [Compound 226] was run?
A: 200 nM

Q: How did the IC50 turn out when Cc1cc2ccc(C(C)(C#N)Cc3cccc(C#N)n3)cc2[nH]c1=O (stereo not shown) [Compound 227] was run?
A: 316 nM

Q: For CCc1cc2ccc(C(C)(C#N)Cc3cc(OC)cc(OC)n3)cc2[nH]c1=O (stereo not shown) [Compound 232], which IC50 is on record?
A: 63.1 nM

Q: For CCc1cc2ccc(C(C)(C#N)Cc3cc(C#N)cc4c3OCC4)cc2[nH]c1=O (stereo not shown) [Compound 236], which IC50 is on record?
A: 31.6 nM

Q: How did the IC50 turn out when CCc1cc2ccc(C(C)(C#N)Cc3cc4ccccc4nn3)cc2[nH]c1=O (stereo not shown) [Compound 238] was run?
A: 251 nM

Q: For Cc1cc2ccc([C@@](C)(C#N)[C@@H]3CCc4cc(Br)ccc43)cc2[nH]c1=O [Compound 240], which IC50 is on record?
A: 6310 nM

Q: For Cc1cc2ccc([C@@](C)(C#N)[C@H]3CCc4cc(Br)ccc43)cc2[nH]c1=O [Compound 241], which IC50 is on record?
A: 6310 nM

Q: How did the IC50 turn out when Cc1cc2ccc([C@](C)(C#N)[C@@H]3CCc4cc(Br)ccc43)cc2[nH]c1=O [Compound 242] was run?
A: 7940 nM

Q: With Cc1cc2ccc(C(C)(C#N)C3CCc4cc(Br)ccc43)cc2[nH]c1=O (stereo not shown) [Compound 244] as the compound, how does the IC50 read?
A: 7940 nM

Q: With Cc1cc2ccc(C(C)(C#N)C3CCc4c(Br)cccc43)cc2[nH]c1=O (stereo not shown) [Compound 248] as the compound, how does the IC50 read?
A: 1260 nM

Q: Cc1cc2ccc(C(C)(C#N)C3CCc4ccc(Br)cc43)cc2[nH]c1=O (stereo not shown) [Compound 249] was tested. Which IC50 did it give?
A: 2510 nM

Q: Cc1cc2ccc(C(C)(C#N)C3CCc4ccc(C#N)cc43)cc2[nH]c1=O (stereo not shown) [Compound 250] was tested. Which IC50 did it give?
A: 398 nM

Q: How did the IC50 turn out when C=C(C)c1cccc(CC(C)(C#N)c2ccc3cc(CC)c(=O)[nH]c3c2)c1 (stereo not shown) [Compound 254] was run?
A: 251 nM

Q: CCc1cc2ccc(C(C#N)(CC)Cc3cccc(C#N)c3)cc2[nH]c1=O (stereo not shown) [Compound 265] was tested. Which IC50 did it give?
A: 100 nM

Q: With CCc1cc2ccc(C(C)(C#N)Cc3cc(F)cc(C#N)c3)cc2[nH]c1=O (stereo not shown) [Compound 266] as the compound, how does the IC50 read?
A: 25.1 nM

Q: With CCc1cc2ccc(C(C#N)(CC)Cc3cccc(F)c3)cc2[nH]c1=O (stereo not shown) [Compound 270] as the compound, how does the IC50 read?
A: 316 nM

Q: Which IC50 does the source give for Cc1cc2ccc(C(C)(C#N)CCCCOc3ccccc3)cc2[nH]c1=O (stereo not shown) [Compound 272] here?
A: 501 nM

Q: Which IC50 does the source give for Cc1cc2ccc(C(C)(C#N)Cc3cc(F)cc(F)c3)cc2[nH]c1=O (stereo not shown) [Compound 282] here?
A: 794 nM

Q: CCc1cc2ccc(C(C)(C#N)Cc3cc(C)cc(Br)c3)cc2[nH]c1=O (stereo not shown) [Compound 284] was tested. Which IC50 did it give?
A: 501 nM

Q: For CCc1cc2ccc(C(C#N)(CC)Cc3cccc(OC)c3)cc2[nH]c1=O (stereo not shown) [Compound 287], which IC50 is on record?
A: 1000 nM

Q: How did the IC50 turn out when CCc1cc2ccc(C(C)(C#N)CN(C)CCc3cn(C)c4ccccc34)cc2[nH]c1=O (stereo not shown) [Compound 303] was run?
A: 126 nM

Q: How did the IC50 turn out when Cc1cc2ccc(C(C)(C#N)Cc3cccc(Oc4ccccn4)c3)cc2[nH]c1=O (stereo not shown) [Compound 304] was run?
A: 1000 nM

Q: With CCOc1cc(N(C)C)nc(CC(C)(C#N)c2ccc3cc(CC)c(=O)[nH]c3c2)n1 (stereo not shown) [Compound 312] as the compound, how does the IC50 read?
A: 100 nM

Q: With CCOc1cc(C#N)nc(CC(C)(C#N)c2ccc3cc(CC)c(=O)[nH]c3c2)n1 (stereo not shown) [Compound 315] as the compound, how does the IC50 read?
A: 100 nM

Q: CCc1cc2ccc(C(C#N)(CC)Cc3nc(C#N)cc(OC)n3)cc2[nH]c1=O (stereo not shown) [Compound 316] was tested. Which IC50 did it give?
A: 126 nM

Q: For CCc1cc2ccc(C(C#N)(CC)Cc3nc(OC)cc(OC)n3)cc2[nH]c1=O (stereo not shown) [Compound 321], which IC50 is on record?
A: 158 nM

Q: With CCc1cc2ccc(C(C)(C#N)Cc3ccnc(C#N)c3)cc2[nH]c1=O (stereo not shown) [Compound 324] as the compound, how does the IC50 read?
A: 20 nM
